Assay results from patent US20050043262A1, “Novel specific inhibitor of the cyclin kinase inhibitor p21Waf1/Cip1 and methods of using the inhibitor” (priority 2000, published 2005).
In the oligonucleotide strings, read from the 5' end, every base follows the letter of its sugar. An asterisk marks phosphorothioate; unmarked linkages are phosphodiester. Other units and linkages are bracketed, terminal groups are in braces. A string of capitals states the bases alone. d = 2'-deoxy (DNA)

Tests used:
A431 cells = test: [3H]thymidine incorporation (DNA synthesis) in A431 cells; format: cell-based, human
Experimental: FIG. 9A-D are bar graphs showing Antisense p21^Waf1/Cip1 oligodeoxynucleotide has no significant effect DNA synthesis in PMA-inhibitable A431 cells, as described in Example II, infra. […] A431 cells were placed in serum-free medium overnight and then stimulated with (A) PDGF-BB (30 ng/ml), (B) 10% serum-containing medium, or (C) PDGF-BB or PMA (100 ng/ml) for another 8 hours before [^3H]-thymidine was added for overnight incubation. (D) A10 VSM cells were transfected with sense and antisense p21^Waf1/Cip1 oligonucleotides as above and treated similarly to (B). DNA synthesis was assessed by [^3H]-thymidine incorporation and is expressed as mean ±s.e.m. of three wells per data point. The absolute counts differ between experiments due to different confluency of the cells. The experiments shown are representative of two separate experiments.
Cell culture and DNA synthesis: Cultures of A10 and A431 cells were obtained from American Type Culture Collection (Rockville Md), were maintained as described (Weiss et al. 1998, Am. J. Physiol. 274, C1521-C1529), and were used between passages 15 and 24 or 25 and 35, respectively. The cells were growth-arrested by placing them in serum-free quiescence medium, exposed to growth factors as indicated, and [^3H]thymidine incorporation assessed as previously described (Weiss and Nuccitelli, 1992, J. Biol. Chem. 267, 5608-5613).
This A431 data is in contrast with that obtained in a variety of VSM cell lines, where cell growth was inhibited by similar oligodeoxynucleotide concentrations in cell stimulated with both PDGF-BB and serum (FIG. 9d).

p21^Waf1/Cip1 = test: p21 protein level by Western blot in A10 VSM cells; format: cell-based, rat; conditions: for p21 levels after ionizing radiation: 12 Gy, up to 4 hours
Experimental: Western blots: Cells were grown to confluence in 6 cm culture dishes and serum deprived. After transfection and or treatment with appropriate agonist, the cells were washed with phosphate-buffered saline and lysed in lysis buffer and the supernatant was Western blotted as described (Weiss et al., 1998 Am. J. Physiol., 274, p. C1521-C1529).
To determine whether antisense transfection with p21^Waf1/Cip1 antisense oligonucleotides indeed decreases p21^Waf1/Cip1 protein levels, p21^Waf1/Cip1 levels after antisense transfection were examined employing the fact that PMA is a potent inducer of p21^Waf1/Cip1 (Huang et al., 1995 Proc. Natl. Acad. Sci. U.S.A., 92, p. 4793-4797; Michieli et al., 1994 Cancer Res., 54, p. 3391-3395). Since p21^Waf1/Cip1 protein levels were induced in VSM cells between 2 and 6 hours after PMA stimulation (FIG. 4), the p21^Waf1/Cip1 levels in transfected cells after similar times of PMA stimulation were examined. […] There was no effect of the p21^Waf1/Cip1 sense (SEQ. ID NO.:2) control oligodeoxynucleotide on cellular p21^Waf1/Cip1 levels (compare with FIG. 4).
To check for specificity of protein inhibition by the antisense p21^Waf1/Cip1 oligodeoxynucleotide (SEQ. ID NO.: 1), protein levels of p21^Waf1/Cip1 and p27^Kip1 after transfection with antisense p21^Waf1/Cip1 oligodeoxynucleotide (SEQ. ID NO.:1) were examined. In these experiments the ability of antisense oligodeoxynucleotides (SEQ. ID NO.:1) to inhibit maximally stimulated CKI expression (see FIG. 4) was assessed. The cells were stimulated with PMA for 4 hours at various times after overnight serum starvation.
Western blots: Cells were grown to confluence in 6 cm culture dishes and serum deprived. After transfection and or treatment with appropriate agonist, conditioned medium was removed and saved and the cells were washed with phosphate-buffered saline and lysed in lysis buffer. Both supernatant and cell lysate were normalized to the lysate protein concentrations and Western blotted as described (Weiss R H, et al. Am J Physiol 274:C1521-C1529, 1998).
To confirm that p21 levels were increased after exposure to ionizing radiation, and that the oligonucleotides inhibit this phenomenon in A10 cells, p21 protein levels under these conditions were assayed. […] With the exception of the initial decrease in p21 levels at ½ and 1 hours, the results with the control oligonucleotides were similar to that observed in non-transfected cells.
Adriamycin is a prototypical DNA damaging agent used in the treatment of a variety of cancers. The predominantly G2 arrest seen after Adriamycin treatment has been associated with an increase in p21 levels in some cell lines (Siu W Y, et al. FEBS Lett 461:299-305, 1999). In order to determine whether similar augmentation of p21 is seen in A10 VSM cells and whether the antisense p21 oligonucleotide is inhibiting this response, these cells were treated with Adriamycin either with or without first transfecting the cells with the antisense and control oligonucleotides. Confluent VSM cells were transfected with antisense oligonucleotide to p21 or random sequence control oligonucleotide as described above. After 24 hours, the cells were exposed to Adriamycin (500 ng/ml), lysed at the indicated times after exposure, and Western blotted with p21 antibody.
Using a random sequence phosphorothioate oligodeoxynucleotide (SEQ. ID NO.:3) as a control, the effect of the antisense oligodeoxynucleotide to p21 (400 nM) on p21 and α-actin protein expression in A10 VSM cells, was examined. The lysates, normalized for protein content, were Western blotted with either p21 or α-actin antibody.

caspase-3 = test: Caspase-3 activity (CaspACE colorimetric assay) in T47D cells; format: cell-based, human; conditions: 200 to 400 nM
Experimental: Caspase-3 Activity: The CaspACE Assay System was used to measure the activity of caspase-3. After incubation under appropriate conditions, the cells were lysed in CaspACE lysis buffer, and protein concentration was determined by dye reagent protein assay (Bio-Rad, Hercules, Calif.). […] The lysates with equal protein amounts were incubated with DEVD-p-nitroaniline substrate for 4 hours at 37° C. The reaction products were detected at 405 nm using a PowerWave X automated plate reader (Bio-Tek Instruments).
As another confirmatory test for antisense p21 ODN-mediated apoptosis, caspase-3 activation was assessed. Members of the caspase family of proteases are essential components of an evolutionarily conserved cell death pathway in multicellular eukaryotes and play key roles in inflammation and apoptosis in mammalian cells. Caspase-3 has substrate specificity for the amino acid sequence DEVD (Asp-Glu-Val-Asp) and is inhibited by the tetrapeptide inhibitor Ac-DEVD-CHO; its catalytic activity was assessed colorimetrically using the labeled Ac-DEVD-pNA substrate. […] T47D cells were grown to confluence, serum starved for 24 hours, and lipofected with antisense p21 or control ODN at the concentrations indicated. Caspase-3 activity was assessed as described in “Capase-3 Activity” using a colorimetric method. […]

| Substance | DNA synthesis upon stimulation with PDGF or serum (A431 cells; 0 to 400 nM oligodeoxynucleotide) | difference in DNA synthesis between sense and antisense (A431 cells; up to 800 nM) | p21 protein level (p21^Waf1/Cip1; A10 VSM cells, 400 nM) | p21 levels after ionizing radiation (p21^Waf1/Cip1; A10 VSM cells) | p21^Waf1/Cip1 protein after maximal stimulation with PMA (p21^Waf1/Cip1; A10 VSM cells, PMA for 4 hours) | PMA-induced p21^Waf1/Cip1 levels (p21^Waf1/Cip1; A10 VSM cells, PMA stimulation up to 6 hours after transfection) | Adriamycin-induced increase of p21 levels (p21^Waf1/Cip1; transfected VSM cells, Adriamycin 500 ng/ml) | caspase-3 cleavage (activity) (caspase-3) |
| --- | --- | --- | --- | --- | --- | --- | --- | --- |
| 5′-GACATCACCAGGATCGGACAT-3′ | no significant change | no difference | marked inhibition | consistently low | completely inhibited | significant attenuation | marked attenuation |  |
| 5′-ATC-CCC-AGC-CGG-TTC-TGA-CAT-3′ (antisense ATCCCCAGCCGGTTCTGACAT; listed as DNA, chemistry not fully specified) [antisense p21 ODN] |  |  |  |  |  |  |  | marked dose-dependent caspase-3 cleavage |
| 5′-TGG ATC CGA CAT GTC AGA-3′ (dT*dG*dG*dA*dT*dC*dC*dG*dA*dC*dA*dT*dG*dT*dC*dA*dG*dA) [random sequence control oligonucleotide, reference compound] |  |  |  | initial slight inhibition |  |  |  | no change |
